Source: US20220249415A1, “COMPOSITION OF AZELAIC ACID HAVING ADIPOSE TRIGLYCERIDE HYDROLYSIS EFFECT” (Korea University Research and Business Foundation, priority 2018, published 2022)

Tests used:
[1] = target: T1, OR2K2 (Homo sapiens, UniProt Q8NGT1); experiment: siRNA knock-down of OR2K2 in HepG2 cells, fatty acid oxidation-related gene expression; type: cell-based
T1 construct: endogenous in cells; host or cells: HepG2
T1 sequence (Q8NGT1 1-316): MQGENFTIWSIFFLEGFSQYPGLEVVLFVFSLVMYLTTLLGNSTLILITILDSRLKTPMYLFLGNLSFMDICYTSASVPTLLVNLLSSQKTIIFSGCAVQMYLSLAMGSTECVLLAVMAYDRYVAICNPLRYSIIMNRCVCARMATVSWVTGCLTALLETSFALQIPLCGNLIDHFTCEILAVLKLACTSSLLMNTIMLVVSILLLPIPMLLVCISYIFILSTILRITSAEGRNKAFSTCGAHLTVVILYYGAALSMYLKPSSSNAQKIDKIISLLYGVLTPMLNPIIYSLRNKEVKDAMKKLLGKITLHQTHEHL
Source text: The gene expression of OR1E1, OR1K1, OR2K2, OR2S2, OR13C5, and OR51E2, corresponding to the top 6 receptors among 10 human olfactory receptors selected to be expressed in both adipose tissue and liver tissue while interacting with azelaic acid, was knocked down with siRNA in human-derived liver cell and adipocyte lines, namely HepG2 cells and hAMSC cells, respectively. Here, siRNAs that were used were OR1E2 siRNA (sc-93932), OR1K2 (sc-92810), OR2K2 (sc-92852), OR2S2 (sc-92505), OR13C5 (sc-92899), and OR51E2 (sc-76265), purchased from Santa Cruz Biotechnology Inc. (Dallas, Tx USA).
After knock-down treatment, the cell lines were treated with azelaic acid, and triglyceride hydrolysis and fatty acid oxidation-related gene expression in HepG2 cells as a human-derived liver cell line and hAMSC cells as a human-derived adipocyte line were measured.

[2] = test system: 3T3-L1 adipocytes; experiment: IP-one assay (ELISA) in 3T3-L1 adipocytes; type: cell-based, mouse; details: 50 μM azelaic acid, 18 hours
Protocol: Therefore, changes in concentrations of cAMP, IP-one (metabolite of IP3), and calcium, which are second messengers by azelaic acid corresponding to the Olfr544 ligand, in 3T3-L1 adipocytes were measured. Since IP3 has low stability to thereby be easily decomposed to IP-one, an amount of intracellular IP-One (metabolite of IP3) was quantified instead of IP3.
IP-one assay is a method of measuring a concentration of IP3 corresponding to a second messenger formed by phospholipolysis by phospholipase in a GPCR signal transduction process to measure an ability to regulate protein kinase C (PKC) signal transduction. In the present experiment, 1×10^4 3T3-L1 adipocytes were seeded in each well of the 96-well plate and differentiated, and then treated with 50 μM azelaic acid for 18 hours. Then, in order to measure IP3, the concentration of intracellular IP-one (metabolite of IP3, a surrogate marker) of which an error was small was measured using an IP-one ELISA Assay kit (Cisbio, France).

[3] = test system: C57BL/6 mice; experiment: Subcutaneous injection in high-fat diet fed male C57BL/6 mice; type: in vivo, mouse; details: high-fat diet male C57BL/6 mice, 50 mg/kg subcutaneously, 3.5 weeks
Protocol: After 4 weeks of high-fat diet feeding in male C57BL/6 mice (7-8 per group), 50 mg/kg of azelaic acid was administered subcutaneously for 3.5 weeks, and Saxenda, which is used as an anti-obesity drug, was administered as a positive control.

[4] = test system: ob/ob mice; experiment: Anti-obesity effect, oral administration to genetically obesity-induced ob/ob mice; type: in vivo, mouse; details: 50 mg/kg oral
Protocol: After orally administering azelaic acid to an ob/ob mouse (Samtako, Seoul, Korea) corresponding to a genetically obesity-induced mouse at a concentration of 50 mg/kg, a degree of obesity thereof was compared with that of a control group to which azelaic acid was not administered. More specifically, an increase in body weight, a feed intake amount, body fat, blood indices, blood lipid indices, a weight of liver tissue, ALT and AST corresponding to hepatotoxicity indices, and energy metabolism were analyzed. Changes in body weight in azelaic acid administration group and a control group were observed once a week for an experiment period of 6 weeks. Body fats (total fat, subcutaneous fat, and abdominal fat) of mice in the azelaic acid administration group to which azelaic acid was orally administered for 6 weeks and a control group were measured through micro CT image analysis. The subcutaneous fat was quantified for the entire site of the mouse, and the abdominal fat was calculated by quantifying an amount of abdominal fat at the 15th to 20th lumbar spine sites of the mouse. In order to evaluate an effect on mouse lipid metabolism of azelaic acid in the administration group to which azelaic acid was orally administered for 6 weeks and the control group, concentrations of blood triglycerides, adiponectin, and cholesterol were measured. Weights of the liver tissue, ALT, and AST of the mice in the azelaic acid administration group to which azelaic acid was orally administered for 6 weeks and the control group were measured.

[5] = test system: protein kinase A (PKA); experiment: PKA kinase activity in 3T3-L1 adipocytes; type: cell-based, mouse; details: azelaic acid 50 μM, 2 hours
Source text: A representative protein regulating protein activities associated with signal transduction depending on a change in concentration of intracellular cAMP in the tissue cells is protein kinase A (PKA). Under general conditions, since an enzyme active site is blocked by a regulatory domain site of protein, a PKA activity is suppressed, but when the concentration of cAMP is increased, cAMP is bound to a regulatory site of PKA to expose an active site, such that the PKA activity is increased. In the present experiment, a change in PKA activity by azelaic acid was measured. The PKA activity was measured using an Enzo PKA kinase activity kit (Cat. #ADI-EKS-390A, Enzo Life Sciences, Korea).

[6] = test system: normal mice; experiment: Energy metabolism by indirect calorimetry in normal mice; type: in vivo, mouse; details: 50 mg/kg oral, 6 weeks
Source text: Relative metabolic rates were confirmed by measuring consumption amount of O2 and production amounts of CO2 of an azelaic acid administration group and a control group using indirect calorimetry.

[7] = test system: 3T3-L1 adipocytes; experiment: Intracellular triglyceride concentration (TG assay kit) in 3T3-L1 adipocytes; type: cell-based, mouse
Protocol: In order to confirm whether or not azelaic acid induces triglyceride hydrolysis in adipocytes by activating a cAMP-PKA-HSL signaling pathway, the adipocytes were directly treated with azelaic acid, and concentrations of intracellular lipids were measured. […] Then, a concentration of triglycerides was measured using a TG assay kit (BioVision, California, U.S.) and a concentration of cholesterol was measured using an Amplex Red cholesterol assay kit (Invitrogen, California, U.S.).

O=C(O)CCCCCCCC(=O)O [azelaic acid, nonanedioic acid]
expression of fatty acid oxidation-related genes (PPARa, CTP1, Acox2) upon treatment with azelaic acid ([1]; HepG2 cells during knock-down of OR2K2): did not change | expression of fatty acid oxidation-related genes (PPARa, CTP1, Acox2), knocked-down group compared to control group ([1]; HepG2 cells, OR2K2 knock-down, upon treatment with azelaic acid): statistically significantly decreased | concentration of IP3 (IP-one) [2]: did not affect | body weight [3]: reduced body weight | subcutaneous fat [3]: reducing subcutaneous fat | concentration of blood cholesterol ([4]; 6 weeks): significantly decreased | concentration of blood triglyceride ([4]; 6 weeks): significantly decreased | weight of the liver tissue ([4]; 6 weeks): decreased | body weight ([4]; 6 weeks, on and after the first week, vs control group): significantly decreased | ALT (hepatotoxicity index) ([4]; 6 weeks, vs control group): no large difference | AST (hepatotoxicity index) ([4]; 6 weeks, vs control group): no large difference | abdominal fat (micro CT) ([4]; 6 weeks, vs control group): significantly decreased | subcutaneous fat (micro CT) ([4]; 6 weeks, vs control group): significantly decreased | total fat (micro CT) ([4]; 6 weeks, vs control group): significantly decreased | feed intake amount ([4]; final week, vs control group): no significant difference | PKA activity increased as compared to a control [5]: 113.8% | consumption amount of O2 ([6]; vs control): no large difference | fatty acid oxidation ([6]; vs control): increased | respiratory quotient (RQ) ([6]; vs control): decreased | total energy expenditure (EE) ([6]; vs control): no change | production amount of CO2 ([6]; vs control group): significantly increased | concentration of intracellular triglycerides decreased as compared to a control ([7]; 3T3-L1 adipocytes, 50 μM azelaic acid, 2 hours): 61.5% | concentration of triglycerides in the 3T3-L1 adipocytes ([7]; azelaic acid 25 or 50 μM): significantly and concentration-dependently decreased
